Assay results: patent publication US20250361202A1, “CALPAIN INHIBITOR” (GORYO CHEMICAL, INC., priority 2022, published 2025)

What was measured:
[1] = target: T1, calpain (calpain-1) in the kit (Homo sapiens, UniProt P07384); assay: Calpain Inhibitory Activity Measurement 1 (SensorLyte 520 Calpain Activity Assay Kit, 5-FAM/QXL 520 substrate); type: biochemical; settings: inhibitor 0.062 μM; 5-FAM/QXL 520 5.0 μM; 37° C., 25 minutes; compared with SNJ-1945
T1 construct: purchased AnaSpec, Inc. AS-72149
T1 sequence (P07384 1-714): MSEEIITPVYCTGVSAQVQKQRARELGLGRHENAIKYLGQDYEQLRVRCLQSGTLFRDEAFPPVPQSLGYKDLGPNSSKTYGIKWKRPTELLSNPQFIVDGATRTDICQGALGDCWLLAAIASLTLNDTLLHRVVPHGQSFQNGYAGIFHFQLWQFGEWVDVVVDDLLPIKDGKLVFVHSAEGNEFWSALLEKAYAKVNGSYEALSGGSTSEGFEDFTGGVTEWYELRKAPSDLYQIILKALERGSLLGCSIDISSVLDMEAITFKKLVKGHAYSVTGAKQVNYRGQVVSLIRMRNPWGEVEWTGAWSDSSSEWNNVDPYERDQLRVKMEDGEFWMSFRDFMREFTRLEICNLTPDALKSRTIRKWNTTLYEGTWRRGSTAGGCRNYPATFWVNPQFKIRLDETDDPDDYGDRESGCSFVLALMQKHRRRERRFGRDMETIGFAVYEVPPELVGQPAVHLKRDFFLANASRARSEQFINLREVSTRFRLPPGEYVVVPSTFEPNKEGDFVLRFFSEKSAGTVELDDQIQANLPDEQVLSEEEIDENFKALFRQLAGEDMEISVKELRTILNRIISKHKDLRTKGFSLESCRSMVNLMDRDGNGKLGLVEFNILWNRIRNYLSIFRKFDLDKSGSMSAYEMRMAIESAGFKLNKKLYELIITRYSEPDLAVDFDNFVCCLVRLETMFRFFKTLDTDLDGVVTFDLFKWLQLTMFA
T1 sequence (P04632 1-268 partner): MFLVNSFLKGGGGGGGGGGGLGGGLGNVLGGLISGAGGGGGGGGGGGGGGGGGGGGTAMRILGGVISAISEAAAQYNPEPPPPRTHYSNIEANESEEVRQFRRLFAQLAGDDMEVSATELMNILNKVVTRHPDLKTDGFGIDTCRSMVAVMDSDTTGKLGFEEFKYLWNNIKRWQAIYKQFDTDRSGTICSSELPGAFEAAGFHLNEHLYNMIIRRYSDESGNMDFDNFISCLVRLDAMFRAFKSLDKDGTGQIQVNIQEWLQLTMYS
Protocol: Calpain inhibitory activity was measured with SensorLyte™ 520 Calpain Activity Asay Kit (AnaSpec, Inc., AS-72149) in conformity with a method described in its assay protocol. SNJ-1945 (Medkoo Biosciences, Inc., Cat #564979), Compound 13, Compound 14, Compound 18, or Compound 19 serving as a calpain inhibitor and a calpain (calpain-1) in the kit were mixed with each other in Assay Buffer, and the mixture was incubated at 37° C. for 3 minutes. 5-FAM/QXL™ 520 serving as a calpain enzyme substrate was added to the incubated product to perform an enzyme reaction by the calpain at 37° C. for 25 minutes (the final concentration of each inhibitor was 0.062 μM, and the final concentration of 5-FAM/QXL™ 520 was 5.0 μM). In the enzyme reaction, the enzyme substrate is cleaved by the calpain to emit fluorescence. The emission fluorescence intensity of the substrate was detected with a plate reader (Infinite™ 200 PRO, TECAN) (at an excitation wavelength of 490 nm and a fluorescence wavelength of 520 nm). SNJ-1945 is a known calpain inhibitor, and has the following structure.

[2] = target: T2, calpain-1 from human erythrocytes (Homo sapiens, UniProt P07384); assay: Calpain Inhibitory Activity Measurement 2 (HMRG fluorescent probe, various inhibitor concentrations, IC50); type: biochemical; settings: fluorescent probe 5 μM; calpain-1 6.48 μg/mL; 37° C., 30 minutes; Tris buffer pH 7.4
T2 construct: calpain-1 from human erythrocytes; purchased Merck Millipore 208713; host or cells: human erythrocytes
T2 sequence (P07384 1-714): T1 sequence (P07384 1-714)
T2 sequence (P04632 1-268 partner): T1 sequence (P04632 1-268 partner)
Protocol: Calpain-1 (calpain-1 from human erythrocytes, Cat. No. 208713, Merck Millipore) and a DMSO solution of a HMRG fluorescent probe for detecting calpain activity were added to each of 50 mM Tris buffers (pH: 7.4, 5 mM CaCl2), 2 mM DTE, 2 mM EGTA) containing various concentrations of SNJ-1945 or Compound 13 to perform fluorescence assays (the final concentration of the fluorescent probe was 5 μM, and the final concentration of calpain-1 was 6.48 μg/mL). […] The results are shown in FIG. 2 (concentrations shown in the figure each represent the final concentration of SNJ-1945 or Compound 13 in each assay). The following compound was used as the probe for detecting calpain activity.
An IC50 was determined on the basis of a graph produced with data analysis software “KaleidaGraph”. As a result, the IC50 of Compound 13 was 0.010 μM, and the IC50 of SNJ-1945 was 0.040 μM.

Compound	enzyme inhibitory activity on the calpain (fluorescence increase amount, FIG. 1) [1]	IC50 [2]
COC(C)(C)C(=O)N[C@@H](CC(C)C)C(=O)N[C@@H](Cc1ccccc1)C(=O)C(=O)NC1CC1 [Compound 14]	stronger than that of SNJ-1945	–
COCCC(=O)N[C@@H](CC(C)C)C(=O)N[C@@H](Cc1ccccc1)C(=O)C(=O)NC1CC1 [Compound 19, reference compound]	comparable to that of SNJ-1945	–
COCCOCCOC(=O)N[C@@H](CC(C)C)C(=O)N[C@@H](Cc1ccccc1)C(=O)C(=O)NC1CC1 [SNJ-1945, reference compound]	inhibited	40 nM

Continued, values first:

enzyme inhibitory activity on the calpain (fluorescence increase amount, FIG. 1) [1]	IC50 [2]	Compound
stronger than that of SNJ-1945	10 nM	COCC(=O)N[C@@H](CC(C)C)C(=O)N[C@@H](Cc1ccccc1)C(=O)C(=O)NC1CC1 [Compound 13]
stronger than that of SNJ-1945	–	C#CCOCC(=O)N[C@@H](CC(C)C)C(=O)N[C@@H](Cc1ccccc1)C(=O)C(=O)NC1CC1 [Compound 18]
